# Assay results taken from patent publication US20220041647A1, “ESTRA-1,3,5(10)-TRIENE COMPOUNDS CONDENSED IN POSITION 16(17) WITH A PYRAZOLE RING AS INHIBITORS OF 17-HSD1” (FORENDO PHARMA LTD, priority 2018, published 2022).
# Experiments:
# [1] = molecular target: T1, recombinant human 17β-HSD1 (Homo sapiens, UniProt P14061); test: Inhibition of recombinant human 17β-HSD1 (estrone to estradiol conversion, HPLC/radioactivity); assay type: biochemical; conditions: compound 100 nM; 30 nM estrone, 1 mM NADPH, 30 min RT
# T1 construct: made in house; host or cells: Sd9 (Sf9) insect cells, baculovirus (Bac to Bac Expression System)
# T1 sequence (P14061 1-328): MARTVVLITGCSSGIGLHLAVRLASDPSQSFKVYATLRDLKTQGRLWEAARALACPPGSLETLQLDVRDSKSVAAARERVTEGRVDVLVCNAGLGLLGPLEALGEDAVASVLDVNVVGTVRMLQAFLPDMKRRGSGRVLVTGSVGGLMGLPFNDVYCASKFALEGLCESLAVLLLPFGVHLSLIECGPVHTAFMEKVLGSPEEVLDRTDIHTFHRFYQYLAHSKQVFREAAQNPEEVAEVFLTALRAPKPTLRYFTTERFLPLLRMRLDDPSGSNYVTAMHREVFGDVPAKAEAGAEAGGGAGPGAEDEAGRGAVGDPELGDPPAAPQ
# Procedure, shortened: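 Microsomal human 17β-HSD1 from Sf9 baculovirus (1 μg/ml) was incubated 30 min at RT in 20 mM KH2PO4 pH 7.4 with 30 nM ^3H-estrone, 1 mM NADPH and inhibitor at 1 μM or 0.1 μM (1% DMSO). Estrone and estradiol were separated by HPLC with radioactivity detection. % inhibition = 100 − % conversion relative to uninhibited control.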
# [2] = molecular target: T2, recombinant human 17β-HSD2 (Homo sapiens, UniProt P37059); test: Inhibition of recombinant human 17β-HSD2 (estradiol to estrone conversion, HPLC/radioactivity); assay type: biochemical; conditions: compound 1 μM; 50 nM estradiol, 1 mM NADH, 30 min RT
# T2 construct: made in house; host or cells: Sd9 (Sf9) insect cells, baculovirus (Bac to Bac Expression System)
# T2 sequence (P37059 1-387): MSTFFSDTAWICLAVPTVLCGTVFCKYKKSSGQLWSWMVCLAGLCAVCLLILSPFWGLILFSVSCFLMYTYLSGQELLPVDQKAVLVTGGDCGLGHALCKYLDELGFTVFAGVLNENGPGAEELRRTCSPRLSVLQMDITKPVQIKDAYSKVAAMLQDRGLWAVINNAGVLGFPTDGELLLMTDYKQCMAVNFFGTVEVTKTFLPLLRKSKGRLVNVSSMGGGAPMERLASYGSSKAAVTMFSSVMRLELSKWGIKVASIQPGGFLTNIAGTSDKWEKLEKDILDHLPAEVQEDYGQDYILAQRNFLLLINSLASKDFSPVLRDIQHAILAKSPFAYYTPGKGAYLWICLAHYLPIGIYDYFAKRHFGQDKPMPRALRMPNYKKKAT
# Procedure, shortened: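 Membrane extract of Sf9 cells expressing recombinant human 17β-HSD2 (4 μg/ml), in 20 mM KH2PO4 pH 8.5 with 50 nM ^3H-spiked estradiol and 1 mM NADH, 30 min at RT, 1% DMSO. Compound at 1 μM or 0.1 μM; estrone formation by HPLC radioactivity, % inhibition relative to uninhibited conversion.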
# [3] = Metabolic stability assay, human hepatocyte incubations; assay type: in vitro ADME; conditions: compound 1 μM, human hepatocytes, 0-60 min at 37° C.; read-out: Human hepatocytes MetStab T½ min
# Procedure, shortened: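 Compounds at 1 μM (1% DMSO final) incubated with human hepatocytes at 37 °C for 0, 10, 20, 40 and 60 min. Parent measured by LC-MS/MS as % remaining versus time zero; T1/2 obtained by regression of the disappearance curve.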
SMILES,inhibition at 0.1 µM [1] [%],inhibition at 1 µM [2] [%],half-life at 1 μM [3] [min]
"C[C@]12CCC3c4cccc(F)c4CCC3C1[C@H](CCC(=O)N1CCC3(CCOCC3)C1)c1c[nH]nc12 (stereo partly drawn) [Compound 219, 3-((8aS,12S)-3-fluoro-8a-methyl-1,2,6b,7,8,8a,10,12,12a,12b-decahydronaphtho[2′,1′:4,5]indeno[1,2-c]pyrazol-12-yl)-1-(8-oxa-2-azaspiro[4.5]decan-2-yl)propan-1-one]",91,3,7
"CN(C)C(=O)CC[C@@H]1c2c[nH]nc2[C@@]2(C)CCC3c4cccc(F)c4CCC3C12 (stereo partly drawn) [Compound 222, 3-((8aS,12S)-3-fluoro-8a-methyl-1,2,6b,7,8,8a,10,12,12a,12b-decahydronaphtho[2′,1′:4,5]indeno[1,2-c]pyrazol-12-yl)-N,N-dimethylpropanamide]",91,0,12
"C[C@]12CCC3c4cccc(F)c4CCC3C1[C@H](CCC(=O)Nc1ncccc1F)c1c[nH]nc12 (stereo partly drawn) [Compound 231, 3-((8aS,12S)-3-fluoro-8a-methyl-1,2,6b,7,8,8a,10,12,12a,12b-decahydronaphtho[2′,1′:4,5]indeno[1,2-c]pyrazol-12-yl)-N-(3-fluoropyridin-2-yl)propanamide]",86,4,29
